Test results reported in PubChem BioAssay AID2060512 (Molecular Pharmacology Branch, DTP, NCI, 2025).
Several values for one entry are separate records, joined by “and”; a condition that tells them apart may be missing. Identical values can stand only once.

System: 186277-243-T-J2-PDC complex spheroid viability
Experiment: Anticancer human tumor 186277-243-T-J2-PDC patient-derived colon adenocarcinoma cell line growth inhibition [GQUAD]
Details: for viability, T/C: stronger effect = lower value; for IC50: curve of compound
Source text: DNA G-quadruplex Stabilizer Agents in Combinations in Complex Spheroids
A high-throughput screen of multi-cell type tumor spheroids was designed to identify active combinations of DNA G-quadruplex stabilizer agents and targeted small molecules. Complex spheroids include a stromal component modeled by human endothelial cells (HUVEC) and fibroblasts modeled by human mesenchymal stem cells (MSCs). The concentration ranges selected for each drug and investigational agent were based upon clinically achievable concentrations if the clinical Cmax of the agent was known.
Compounds. The drugs and investigational agents: pidnarulex (CX-5461; NSC782164), APTO-253 (NSC789042), BRACO-19 (NSC847499), peposertib (NSC802822), ceralasertib (NSC780249), elimusertib (NSC800525), camonsertib (NSC841442), AZD-1390 (NSC803789), olaparib (NSC753686), talazoparib (NSC767125), ART-558 (NSC835418), sotorasib (NSC818433), MRTX-1133 (NSC836407), SN-38 (NSC673596), topotecan (NSC609699), etoposide (NSC141540), doxorubicin (NSC123127), gemcitabine (NSC613327), 5-fluorouracil (NSC19893), paclitaxel (NSC125973), vemurafenib (NSC761431), panobinostat (NSC761190), R-306465 (JNJ-16241199; NSC773264), adavosertib (NSC754352), TP-3654 (NSC805149), carboplatin (NSC241240), KSQ-4279 (NSC840948), and staurosporine (NSC755774) were obtained from the National Cancer Institute (NCI) Developmental Therapeutics Program Chemical Repository (34). The FDA-approved anticancer drug set is available from the NCI Developmental Therapeutics Program. […] The stock solutions were prepared in dimethyl sulfoxide (DMSO, Sigma-Aldrich, St. Louis, MO, cat. D2650) at 800-fold the tested concentration and stored at -70 degrees C prior to their use. All drugs and investigational agents were tested over a range starting from a high concentration at or near the clinical Cmax and decreasing in half-log increments. If the clinical Cmax for an agent had not been determined, the highest concentration tested was 10 microM.
2.3 Cell Culture. All cells were maintained in an incubator at 37 degrees C and 5% CO2 with 95% humidity. The PDC lines were cultured according to standard operating procedures established by the NCI PDMR. All PDCs were thawed and cultured in Matrigel-coated flasks prepared with a working solution of 1X Ham's F-12 nutrient mix, without supplementation (Invitrogen, cat. 11765054), 100 U/mL penicillin-streptomycin (Invitrogen, cat. 15140122), and 2.5% Matrigel (Corning Inc., cat. 354248) for the first three passages. The 857933-349-R-J2-PDC line was cultured in 6C/Colon 1B media, which includes advanced DMEM/F-12 (Thermo Fisher Scientific, cat. 12634028), 10 mM HEPES (Thermo Fisher Scientific, cat. 15630080), 1X GlutaMAX supplement (Thermo Fisher Scientific, cat. 35050061), 0.1 mg/mL primocin (InvivoGen, cat. ant-pm-2), 10% defined fetal bovine serum, heat inactivated (HyClone Laboratories Inc., cat. SH30070.03HI), 50% L-WRN conditioned media (ATCC, cat. CRL-3276), 1.25 mM N-Acetyl-L-cysteine (Sigma-Aldrich, cat. A9165), 10 mM nicotinamide (Sigma-Aldrich, cat. N0636), 1X B-27 supplement (Thermo Fisher Scientific, cat. 17504044), 1X N-2 supplement (Thermo Fisher Scientific, cat. 17502048), 10 microM Y-27632 dihydrochloride (Tocris Bioscience, cat. 1254), and 50 ng/mL human EGF recombinant protein (Thermo Fisher Scientific, cat. PHG0311). The 485176-168-R4-J1-PDC line was cultured in Panc media, which includes all 6C/Colon 1B media components plus 100 ng/mL human FGF-10 (Thermo Fisher Scientific, cat. 100-26), 500 nM SB-431542 (Selleckchem, cat. S1067), and gastrin (Tocris, cat. 3006).
[…]
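Also: spheroids exposed to drugs for 7 days.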
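For viability, T/C in this document: 100% = DMSO vehicle control viability.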

SMILES | IC50 | viability, T/C (compound 0.0316 µM) | viability, T/C (compound 0.1 µM) | viability, T/C (compound 0.316 µM) | viability, T/C (compound 1 µM) | viability, T/C (compound 3.16 µM) | viability, T/C (compound 10 µM) | viability, T/C (compound 0.000999 µM) | viability, T/C (compound 0.00316 µM) | viability, T/C (compound 0.00999 µM) | viability, T/C (compound 0.0999 µM)
CC(C)n1c(=O)n(C)c2cnc3cc(F)c(-c4ccc(OCCCN5CCCCC5)nc4)cc3c21 | > 10000 nM | 99.3% and 98.7% and 80.8% | 90.1% and 89.8% and 84.8% | 106% and 104% and 82.1% | 96.6% and 119% and 84.2% | 104% and 106% and 97.2% | 89.4% and 101% and 76% | – | – | – | –
COc1ncnc(C2CC2)c1-c1ncc2cnn(Cc3ccc(-c4nc(C(F)(F)F)cn4C(C)C)cc3)c2n1 | > 10000 nM | 90% and 113% and 103% | 95.5% and 108% and 94% | 90.5% and 94.9% and 102% | 88.4% and 101% and 105% | 96% and 96.8% and 92.5% | 76.6% and 96.9% and 106% | – | – | – | –
Cn1ncnc1[C@H]1c2n[nH]c(=O)c3cc(F)cc(c23)N[C@@H]1c1ccc(F)cc1 | > 316 nM | 111% and 110% and 97.4% | – | 92.4% and 86.5% and 90.8% | – | – | – | 99.3% and 96.1% and 115% | 93.5% and 96.6% and 91% | 94.1% and 100% and 98.4% | 87.5% and 91.4% and 106%
CC1COCCN1c1cc(C2(O)CC3CCC(C2)O3)c2cnn(-c3ccn[nH]3)c2n1 (centres undefined) | 43.7 nM and 45.3 nM and 33.4 nM | 64.6% and 66.1% and 52.2% | 13.1% and 14.8% and 10% | 7.61% and 5.43% and 6.02% | 4.72% and 5.45% and 4.44% | 4.67% and 5.36% and 4.31% | 3.02% and 2.97% and 3.42% | – | – | – | –
COc1ccc([C@@H](O)c2cc(-c3ncnc4cc(N5CCOCC5)ccc34)c(F)cc2Cl)nn1 | 6400 nM and 4880 nM and 5940 nM | 97.6% and 103% (2×) | 84.1% and 107% and 101% | 115% and 112% and 97.2% | 95.7% and 90.8% and 108% | 63% and 66.2% and 70% | 41.8% and 24.9% and 33.5% | – | – | – | –

More lines, main results first:

IC50 | SMILES | viability, T/C (compound 0.0316 µM) | viability, T/C (compound 0.1 µM) | viability, T/C (compound 0.316 µM) | viability, T/C (compound 1 µM) | viability, T/C (compound 3.16 µM) | viability, T/C (compound 10 µM) | viability, T/C (compound 0.000999 µM) | viability, T/C (compound 0.00316 µM) | viability, T/C (compound 0.00999 µM) | viability, T/C (compound 0.0999 µM)
< 31.6 nM | CC(=O)O[C@H]1C(=O)[C@@]2(C)[C@H]([C@H](OC(=O)c3ccccc3)[C@]3(O)C[C@H](OC(=O)[C@H](O)[C@@H](NC(=O)c4ccccc4)c4ccccc4)C(C)=C1C3(C)C)[C@]1(OC(C)=O)CO[C@@H]1C[C@@H]2O | 11.9% and 17.4% and 29% | 4.45% and 7.62% and 9.72% | 5.05% and 6.94% and 9.26% | 5.03% and 4.51% and 8.19% | 4.85% and 4.62% and 5.67% | 4.7% and 4.26% and 6.48% | – | – | – | –
172 nM and 183 nM and 180 nM | O=C(NO)c1cnc(N2CCN(S(=O)(=O)c3ccc4ccccc4c3)CC2)nc1 | 108% and 104% and 95.6% | 87.7% and 95.5% and 89.9% | 7.49% and 8.52% and 11.5% | 0.33% and 0.31% and 0.48% | 0.27% and 0.25% and 0.13% | 0.27% and 0.25% and 0.15% | – | – | – | –
